From patent US20020026053A1, “Novel 3-(substituted) -2- indolinones compounds and use thereof as inhibitors of protein kinase activity” (priority 1997, published 2002)

Experiments:
[1] = tested on: PDGF-R; assay: PDGF-R Assay (cellular ELISA, U1242 cells); format: cell-based; design: concentration or dose not given beside the values
Outline: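 U1242 cells seeded in 0.5% serum, serum-starved, then exposed to compound for 2 hr at 37°C before 5–10 min ligand stimulation and lysis in HNTG. Lysate captured on receptor-antibody-coated plates; phosphotyrosine detected with polyclonal anti-pTyr, goat anti-rabbit IgG and ABTS/H2O2, A410 (ref 630 nm), versus untreated cells.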

[2] = tested on: FLK-1 receptor; assay: FLK-1 Assay (cellular/catalytic ELISA, VEGF-stimulated phosphotyrosine); format: cell-based; design: concentration or dose not given beside the values
Outline: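 NIH3T3 C7#3 cells engineered to express Flk-1 were serum-starved overnight (0.1% FBS), then exposed to compound for 2 h at 37 °C (final dilution 1:200, 0.5% DMSO) before VEGF stimulation. Lysates captured on anti-FLK-1 antiserum plates; phosphotyrosine detected by UB40 antibody/POD-ABTS ELISA versus untreated controls.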

SMILES	PDGF Kinase % Inhibition (P.119) [1]	Flk Kinase % Inhibition (P.110) [2]
CNS(=O)(=O)c1ccc2c(c1)C(=Cc1ccc(Br)s1)C(=O)N2 [10734/D11]	17.0%	9.8%
CCOc1cccc(C=C2C(=O)Nc3ccc(S(=O)(=O)Nc4ccc(C(F)(F)F)cc4)cc32)c1O [10734/E02]	50.1%	7.9%
O=C1Nc2ccc(S(=O)(=O)Nc3ccc(C(F)(F)F)cc3)cc2C1=Cc1cc(Cl)cc(Cl)c1O [10734/E03]	27.2%	26.9%
O=C1Nc2ccc(S(=O)(=O)Nc3ccc(C(F)(F)F)cc3)cc2C1=Cc1cc(Cl)ccc1O [10734/E04]	26.7%	10.7%
CCN(CC)c1ccc(C=C2C(=O)Nc3ccc(S(=O)(=O)Nc4ccc(C(F)(F)F)cc4)cc32)c(O)c1 [10734/E05]	17.9%	10.6%
O=C1Nc2ccc(S(=O)(=O)Nc3ccc(C(F)(F)F)cc3)cc2C1=Cc1ccc([N+](=O)[O-])cc1 [10734/E06]	13.5%	28.4%
O=C1Nc2ccc(S(=O)(=O)Nc3ccc(C(F)(F)F)cc3)cc2C1=Cc1cc(Br)cc(Br)c1O [10734/E07]	8.2%	27.9%
O=C1Nc2ccc(S(=O)(=O)Nc3ccc(C(F)(F)F)cc3)cc2C1=Cc1cccc(F)c1O [10734/E08]	13.0%	26.6%
O=C1Nc2ccc(S(=O)(=O)Nc3ccc(C(F)(F)F)cc3)cc2C1=Cc1ccc(O)c(Br)c1 [10734/E09]	1.1%	8.0%
CC(C)(C)c1ccc(C=C2C(=O)Nc3ccc(S(=O)(=O)Nc4ccc(C(F)(F)F)cc4)cc32)cc1 [10734/E10]	29.8%	18.5%
O=C1Nc2ccc(S(=O)(=O)Nc3ccc(C(F)(F)F)cc3)cc2C1=Cc1ccc(Br)s1 [10734/E11]	16.1%	19.2%
CCOc1cccc(C=C2C(=O)Nc3ccc(S(=O)(=O)N4CCOCC4)cc32)c1O [10734/F02]	10.4%	6.2%
O=C1Nc2ccc(S(=O)(=O)N3CCOCC3)cc2C1=Cc1cc(Cl)cc(Cl)c1O [10734/F03]	−24.1%	4.2%
O=C1Nc2ccc(S(=O)(=O)N3CCOCC3)cc2C1=Cc1cc(Cl)ccc1O [10734/F04]	25.0%	−2.6%
CCN(CC)c1ccc(C=C2C(=O)Nc3ccc(S(=O)(=O)N4CCOCC4)cc32)c(O)c1 [10734/F05]	−1.1%	9.8%
O=C1Nc2ccc(S(=O)(=O)N3CCOCC3)cc2C1=Cc1ccc([N+](=O)[O-])cc1 [10734/F06]	−21.4%	11.0%
O=C1Nc2ccc(S(=O)(=O)N3CCOCC3)cc2C1=Cc1cc(Br)cc(Br)c1O [10734/F07]	−5.1%	6.6%
O=C1Nc2ccc(S(=O)(=O)N3CCOCC3)cc2C1=Cc1cccc(F)c1O [10734/F08]	−6.0%	4.8%
O=C1Nc2ccc(S(=O)(=O)N3CCOCC3)cc2C1=Cc1ccc(O)c(Br)c1 [10734/F09]	−17.4%	−3.7%
CC(C)(C)c1ccc(C=C2C(=O)Nc3ccc(S(=O)(=O)N4CCOCC4)cc32)cc1 [10734/F10]	25.8%	14.8%
O=C1Nc2ccc(S(=O)(=O)N3CCOCC3)cc2C1=Cc1ccc(Br)s1 [10734/F11]	16.1%	13.3%
CCOc1cccc(C=C2C(=O)Nc3ccc(CCCl)cc32)c1O [10734/G02]	14.8%	1.5%
